Data taken from patent US20250346600A1, “TRICYCLIC DERIVATIVES AND RELATED USES” (MOMA Therapeutics, Inc., priority 2023, published 2025).
Read-outs that look alike come from different tables or passages of the source.

Tests used:
[1] = tested on: HCT116 cells; test: HCT116 (MSI) 7 day viability, CellTiter Glo; type: cell-based; conditions: 7 days, read-out: HCT116 (MSI) Viability 7 Day Abs AC50
Procedure, shortened: (§1)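 HCT116 (50 cells/well) or HT29 (500 cells/well) exposed 7 days at 37° C, 5% CO2, to 10-point 3-fold compound dilutions. Viability measured by CellTiter Glo luminescence, background from cell-free wells; IC50 from four-parameter logistic fit, geometric mean of at least 2 replicates.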

[2] = tested on: HT29 cells; test: HT29 (MSS) 7 day viability, CellTiter Glo; type: cell-based; conditions: 7 days, read-out: HT29 (MSS) Viability 7 Day CTGAbs AC50
Procedure, shortened: as §1

[3] = target: T1, Full length WRN protein (aa 2-1432) (Homo sapiens (Human), UniProt Q14191); test: WRN ATPase ADP-Glo biochemical assay, Assay Format A (10 μM ATP); conditions: 0.25 nM WRN, 100 nM C6.18 ssDNA, 30 min preincubation, read-out: ATPase ADPGlo AC50 (uM)- Assay Format A
T1 sequence (Q14191 2-1432): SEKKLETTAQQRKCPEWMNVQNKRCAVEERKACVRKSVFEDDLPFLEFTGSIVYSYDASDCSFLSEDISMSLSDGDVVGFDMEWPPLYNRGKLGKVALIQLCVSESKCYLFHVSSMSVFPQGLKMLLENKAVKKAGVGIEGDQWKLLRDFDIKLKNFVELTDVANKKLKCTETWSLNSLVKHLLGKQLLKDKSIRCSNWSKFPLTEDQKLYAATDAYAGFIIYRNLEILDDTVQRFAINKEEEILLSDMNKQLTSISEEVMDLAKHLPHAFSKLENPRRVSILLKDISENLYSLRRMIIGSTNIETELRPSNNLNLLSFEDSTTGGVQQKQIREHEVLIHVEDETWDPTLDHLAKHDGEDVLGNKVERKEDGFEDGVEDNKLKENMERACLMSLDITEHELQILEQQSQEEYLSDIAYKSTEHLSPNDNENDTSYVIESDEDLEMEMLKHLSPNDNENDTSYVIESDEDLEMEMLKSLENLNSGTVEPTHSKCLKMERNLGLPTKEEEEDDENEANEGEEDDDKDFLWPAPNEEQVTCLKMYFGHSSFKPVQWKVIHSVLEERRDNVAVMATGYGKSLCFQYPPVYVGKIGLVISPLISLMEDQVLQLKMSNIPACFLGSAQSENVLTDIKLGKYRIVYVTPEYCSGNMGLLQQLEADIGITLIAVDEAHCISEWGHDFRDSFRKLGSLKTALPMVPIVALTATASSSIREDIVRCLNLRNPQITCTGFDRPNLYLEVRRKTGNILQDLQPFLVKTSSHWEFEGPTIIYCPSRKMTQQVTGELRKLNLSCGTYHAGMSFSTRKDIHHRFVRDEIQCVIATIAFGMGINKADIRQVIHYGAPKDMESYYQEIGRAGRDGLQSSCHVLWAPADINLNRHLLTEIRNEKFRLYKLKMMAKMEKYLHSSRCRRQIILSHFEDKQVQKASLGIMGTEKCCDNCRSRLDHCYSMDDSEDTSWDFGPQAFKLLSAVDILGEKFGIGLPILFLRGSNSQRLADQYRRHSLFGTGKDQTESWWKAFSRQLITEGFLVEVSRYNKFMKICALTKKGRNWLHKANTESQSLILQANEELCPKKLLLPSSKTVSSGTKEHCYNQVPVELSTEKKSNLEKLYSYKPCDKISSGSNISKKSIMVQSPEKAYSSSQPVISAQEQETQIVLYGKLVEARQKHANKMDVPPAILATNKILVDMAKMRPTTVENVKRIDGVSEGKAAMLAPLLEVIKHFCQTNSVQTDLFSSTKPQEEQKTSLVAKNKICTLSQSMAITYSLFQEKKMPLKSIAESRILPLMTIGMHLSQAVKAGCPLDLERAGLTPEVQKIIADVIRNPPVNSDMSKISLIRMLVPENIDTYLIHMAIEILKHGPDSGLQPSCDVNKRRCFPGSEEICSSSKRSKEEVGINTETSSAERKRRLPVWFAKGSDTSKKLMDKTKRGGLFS
Text: Full length Werner helicase construct (Uniprot: Q14191) with an N-terminal FLAG-AVI-TEV tag was expressed using the Sf9 cell/baculovirus expression system. The harvested cell pellet was resuspended and lysed in a glass homogenizer. After insoluble material was removed by centrifugation, the helicase protein was first purified with FLAG affinity resin and then further purified through a size-exclusion chromatography column. Peak fractions containing the purified protein were concentrated, split into aliquots and frozen in liquid nitrogen to be thawed before use. Biochemical Assay Description (ATPase activity)-Assay Format A WRN activity was measured using an ATPase assay. Full length WRN protein (aa 2-1432) (production described separately) was used for the biochemical activity assays. The 39-mer ssDNA “C6.18” [NT] was purchased from IDT and used as a substrate. Quantification of ATP hydrolysis was evaluated using the ADP-Glo assay kit (Promega, Madison, WI). An enzyme titration time-course was performed to determine the optimal assay conditions. […] To evaluate the inhibitory effects of the compounds, 11-point 3-fold serial dilutions were prepared in DMSO. 50 nL of each concentration in duplicate was preincubated for 30 minutes in a 384-well microplate (Greiner #784075) with 5 μL of 0.5 nM WRN in assay buffer. The reaction was initiated by adding 5 μL of 200 nM C6.18 DNA with 20 μM ATP and was allowed to proceed for 30 minutes at room temperature. The reaction was stopped with 10 μL ADP-Glo reagent for 1 hour to remove unreacted ATP. Lastly, 20 μL ATP detection reagent was added and incubated for 1 hour to generate the luminescence signal. Control wells included “high controls” with no inhibition (DMSO, no compound) and “low controls” with maximum inhibition (no WRN). Luminescence was recorded on a PHERAstar (BMG Labtech, Ortenberg, Germany). Data was fit using the “Smart Fit” method within the Genedata Screener Software (Basel, Switzerland) to obtain IC50 values using four-parameter fits. Reported IC50s are the geometric means of at least two independent trials.

[4] = target: T1, Full length WRN protein (aa 2-1432); test: WRN ATPase ADP-Glo biochemical assay, Assay Format B (100 μM ATP); conditions: 0.25 nM WRN, 100 nM C6.18 ssDNA, 60 min preincubation
[5] = read-out: ATPase ADPGlo AC50 (uM)- Assay Format B

AC50 [3] [µM] | AC50 [4, 5] [µM] | SMILES | AC50 ([1]; Homo sapiens, HCT-116, 168 h) [nM] | AC50 ([2]; Homo sapiens, HT-29, 168 h) [nM] | also measured
> 0.055 |  | C=CC(=O)N1CCc2nn(-c3ccc(C(C)C)cc3)c3c2C(C1)N(C(=O)c1ccc2c(cnn2C(F)(F)F)c1)CC3 (stereo not drawn) [Compound 11, 1-(2-(4-isopropylphenyl)-5-(1-(trifluoromethyl)-1H-indazole-5-carbonyl)-2,3,4,5,5a,6,8,9-octahydro-7H-1,2,5,7-tetraazabenzo[cd]azulen-7-yl)prop-2-en-1-one] | > 1000 | > 3000 | 
> 0.055 |  | C=CC(=O)N1CCc2nn(-c3ccc(C4CC4)cc3)c3c2C(C1)N(C(=O)c1csc(S(N)(=O)=O)c1)CC3 (stereo not drawn) [Compound 125, 4-(7-acryloyl-2-(4-cyclopropylphenyl)-3,4,5,5a,6,7,8,9-octahydro-2H-1,2,5,7-tetraazabenzo[cd]azulene-5-carbonyl)thiophene-2-sulfonamide] |  |  | 
0.015 to 0.055 |  | C=CC(=O)N1CCc2nn(-c3ccc(C4CC4)cc3)c3c2C(C1)N(C(=O)c1cnc2[nH]c(C(F)(F)F)nc2c1)CC3 (stereo not drawn) [Compound 124, 1-(2-(4-cyclopropylphenyl)-5-(2-(trifluoromethyl)-3H-imidazo[4,5-b]pyridine-6-carbonyl)-2,3,4,5,5a,6,8,9-octahydro-7H-1,2,5,7-tetraazabenzo[cd]azulen-7-yl)prop-2-en-1-one] |  |  | 
0.005 to 0.015 |  | C=CC(=O)N1CCc2nn(-c3ccc(C4CC4)cc3)c3c2C(C1)N(C(=O)c1ccc(Br)nn1)CC3 (stereo not drawn) [Compound 108, 1-(5-(6-bromopyridazine-3-carbonyl)-2-(4-cyclopropylphenyl)-2,3,4,5,5a,6,8,9-octahydro-7H-1,2,5,7-tetraazabenzo[cd]azulen-7-yl)prop-2-en-1-one] |  |  | 
0.005 to 0.015 |  | C=CC(=O)N1CCc2nn(-c3ccc(C4CC4)cc3)c3c2C(C1)N(C(=O)c1cnc(Br)cc1C)CC3 (stereo not drawn) [Compound 113, 1-(5-(6-bromo-4-methylnicotinoyl)-2-(4-cyclopropylphenyl)-2,3,4,5,5a,6,8,9-octahydro-7H-1,2,5,7-tetraazabenzo[cd]azulen-7-yl)prop-2-en-1-one] |  |  | 
0.015 to 0.055 |  | C=CC(=O)N1CCc2nn(-c3ccc(C4CC4)cc3)c3c2C(C1)N(C(=O)c1cnc2c(c1)c(C(F)(F)F)nn2C)CC3 (stereo not drawn) [Compound 111, 1-(2-(4-cyclopropylphenyl)-5-(1-methyl-3-(trifluoromethyl)-1H-pyrazolo[3,4-b]pyridine-5-carbonyl)-2,3,4,5,5a,6,8,9-octahydro-7H-1,2,5,7-tetraazabenzo[cd]azulen-7-yl)prop-2-en-1-one] |  |  | 
0.015 to 0.055 |  | C=CC(=O)N1CCc2nn(-c3ccc(C4CC4)cc3)c3c2C(C1)N(C(=O)C12CC(C(F)(F)F)(C1)C2)CC3 (stereo not drawn) [Compound 121, 1-(2-(4-cyclopropylphenyl)-5-(3-(trifluoromethyl)bicyclo [1.1.1]pentane-1-carbonyl)-2,3,4,5,5a,6,8,9-octahydro-7H-1,2,5,7-tetraazabenzo[cd]azulen-7-yl)prop-2-en-1-one] |  |  | 
 | 0.0015 to 0.005 | C=CC(=O)N1CC(OC2CC(C#N)C2)c2nn(-c3ccc(C4CC4)cc3O)c3c2C(C1)N(C(=O)c1cnc(C(F)(F)F)cc1N)CC3 (stereo not drawn) [Compound 222, 3-((7-acryloyl-5-(4-amino-6-(trifluoromethyl)nicotinoyl)-2-(4-cyclopropyl-2-hydroxyphenyl)-3,4,5,5a,6,7,8,9-octahydro-2H-1,2,5,7-tetraazabenzo[cd]azulen-9-yl)oxy)cyclobutane-1-carbonitrile] | 1 to 100 | > 3000 | 
 | 0.015 to 0.055 | C=CC(=O)N1CC(OCc2cnc3sccn23)c2nn(-c3ccc(C4CC4)cc3)c3c2C(C1)N(C(=O)c1ccc(C(F)(F)F)nc1)CC3 (stereo not drawn) [Compound 234, 1-(2-(4-cyclopropylphenyl)-9-(imidazo[2,1-b]thiazol-5-ylmethoxy)-5-(6-(trifluoromethyl)nicotinoyl)-2,3,4,5,5a,6,8,9-octahydro-7H-1,2,5,7-tetraazabenzo[cd]azulen-7-yl)prop-2-en-1-one] | 1 to 100 | > 3000 | 
 | 0.015 to 0.055 | C=CC(=O)N1CCc2nn(-c3ccc(C4CC4)c(F)c3O)c3c2C(C1)N(C(=O)c1cnc(Br)c(F)c1N)CC3 (stereo not drawn) [Compound 229, 1-(5-(4-amino-6-bromo-5-fluoronicotinoyl)-2-(4-cyclopropyl-3-fluoro-2-hydroxyphenyl)-2,3,4,5,5a,6,8,9-octahydro-7H-1,2,5,7-tetraazabenzo[cd]azulen-7-yl)prop-2-en-1-one] |  |  | AC50 [1]: 1 to 100 nM; AC50 [2]: > 3000 nM
 | 0.005 to 0.015 | C=CC(=O)N1CCc2nn(-c3ccc(C4CCC4)cc3)c3c2C(C1)N(C(=O)c1ccc(C(F)(F)F)c2[nH]nc(N)c12)CC3 (stereo not drawn) [Compound 147, 1-(5-(3-amino-7-(trifluoromethyl)-1H-indazole-4-carbonyl)-2-(4-cyclobutylphenyl)-2,3,4,5,5a,6,8,9-octahydro-7H-1,2,5,7-tetraazabenzo[cd]azulen-7-yl)prop-2-en-1-one] | 1 to 100 | > 3000 | 
 | 0.0015 to 0.005 | C=CC(=O)N1CCc2nn(-c3ccc(C4CC4)cc3O)c3c2C(C1)N(C(=O)c1nnc(Br)cc1N)CC3 (stereo not drawn) [Compound 228, 1-(5-(4-amino-6-bromopyridazine-3-carbonyl)-2-(4-cyclopropyl-2-hydroxyphenyl)-2,3,4,5,5a,6,8,9-octahydro-7H-1,2,5,7-tetraazabenzo[cd]azulen-7-yl)prop-2-en-1-one] | 1 to 100 | > 3000 | 
 | 0.005 to 0.015 | C=CC(=O)N1CC(C)c2nn(-c3ccc(C4CC4)cc3O)c3c2C(C1)N(C(=O)c1cnc(Br)cc1N)CC3 (stereo not drawn) [Compound 190, 1-(5-(4-amino-6-bromonicotinoyl)-2-(4-cyclopropyl-2-hydroxyphenyl)-9-methyl-2,3,4,5,5a,6,8,9-octahydro-7H-1,2,5,7-tetraazabenzo[cd]azulen-7-yl)prop-2-en-1-one] | 1 to 100 | > 3000 | 
 |  | C=CC(=O)N1CCc2nn(-c3cc(F)c(C4CC4)cc3O)c3c2C(C1)N(C(=O)c1cnc(OC(F)(F)F)c(F)c1N)CC3 (stereo not drawn) [Compound 254, 1-(5-(4-amino-5-fluoro-6-(trifluoromethoxy)nicotinoyl)-2-(4-cyclopropyl-5-fluoro-2-hydroxyphenyl)-2,3,4,5,5a,6,8,9-octahydro-7H-1,2,5,7-tetraazabenzo[cd]azulen-7-yl)prop-2-en-1-one] | 1 to 100 | > 3000 | AC50 ([4]; ATPase ADPGlo AC50 (uM)- Assay Format B): 0.015 to 0.055 µM
 | > 0.055 | C=CC(=O)N1CC2c3c(nn(-c4ccc(C5CC5)cc4)c3CCN2C(=O)c2cnc(C(F)(F)F)cc2N)C2(C1)CN(c1nnc(C)s1)C2 (stereo not drawn) [Compound 233, 1-(5′-(4-amino-6-(trifluoromethyl)nicotinoyl)-2′-(4-cyclopropylphenyl)-1-(5-methyl-1,3,4-thiadiazol-2-yl)-2′,3′,4′,5′,5a′,6′-hexahydro-1′,2′,5′,7′-tetraazaspiro[azetidine-3,9′-benzo[cd]azulen]-1′(9a′),2a′-dien-7′(8′H)-yl)prop-2-en-1-one] | 100 to 250 | > 3000 | 
 | 0.005 to 0.015 | C=CC(=O)N1CCc2nn(-c3ccc(C4CCC4)cc3)c3c2C(C1)N(C(=O)c1ccc2c(Cl)ncn2c1)CC3 (stereo not drawn) [Compound 236, 1-(5-(1-chloroimidazo[1,5-a]pyridine-6-carbonyl)-2-(4-cyclobutylphenyl)-2,3,4,5,5a,6,8,9-octahydro-7H-1,2,5,7-tetraazabenzo[cd]azulen-7-yl)prop-2-en-1-one] | 1 to 100 | > 3000 | 
 | 0.015 to 0.055 | C=CC(=O)N1CC2c3c(nn(-c4ccc(C5CC5)cc4)c3CCN2C(=O)c2ccc(C(F)(F)F)cc2)C(n2ccccc2=O)C1 (stereo not drawn) [Compound 231, 1-(7-acryloyl-2-(4-cyclopropylphenyl)-5-(4-(trifluoromethyl)benzoyl)-3,4,5,5a,6,7,8,9-octahydro-2H-1,2,5,7-tetraazabenzo[cd]azulen-9-yl)pyridin-2(1H)-one] | 1 to 100 | > 3000 | 
